Results on one molecule are retold here after publication PMC8791448 (ACS infectious diseases, 2021).

The target in this experiment is T1, ecLpxC (UDP-3-O-acyl-N-acetylglucosamine deacetylase) (Escherichia coli, UniProt P0A725).
T1 sequence (P0A725 1-305): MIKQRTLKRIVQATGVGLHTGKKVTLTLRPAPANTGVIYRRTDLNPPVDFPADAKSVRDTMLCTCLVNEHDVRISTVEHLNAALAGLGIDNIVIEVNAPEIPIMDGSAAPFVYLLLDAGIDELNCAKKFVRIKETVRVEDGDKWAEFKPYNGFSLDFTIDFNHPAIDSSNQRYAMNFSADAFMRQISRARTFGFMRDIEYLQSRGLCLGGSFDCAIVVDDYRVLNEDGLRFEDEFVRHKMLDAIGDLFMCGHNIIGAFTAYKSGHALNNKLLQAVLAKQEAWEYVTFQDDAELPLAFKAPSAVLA
The experiment in a line: residence time on purified ecLpxC by displacement with fluorescent ligand PT900. Type of experiment: binding. The following applies: read-out: tR (min)^b.

Molecules are shown by their SMILES.

`C[C@@H](O)[C@H](NC(=O)c1ccc(C#Cc2ccc(CN3CCOCC3)cc2)cc1)C(=O)NO` [CHIR-090]: the residence time came out at 66 ± 30 min.
